The values below come from patent US20210045420A1, “SWEETENER AND FLAVOR COMPOSITIONS, METHODS OF MAKING AND METHODS OF USE THEREOF” (EPC Natural Products Co., Ltd., priority 2018, published 2021).

Assay [1] in a line: Sensory evaluation of the samples prepared in Example 50 (Example 52; panel of 4, score 0-5 or +/++/+++). The arrangement: key to Intensity of Smell: “+” for slight; “++” for moderate; “+++” for very strong. The format is in vivo, human.
Method: The reaction partner (amino acid, carbohydrate source) were dissolved/suspended in the reaction solvent and transferred into a glass beaker filled with sand pre-heated for at least 30 minutes at the reaction temperature in a drying oven. After the planned reaction time, the vials were transferred into ice water. After cooling to room temperature, sensory analysis and analytical characterization was performed.
For evaluation of the taste profile, the samples were tested by a panel of four people. 1 trained taster tasted independently the samples first. The taster was asked to describe the taste profile and score 0-5 according to the increasing sugar likeness, bitterness, aftertaste and lingering taste profiles. The first taster was allowed to re-taste, and then make notes for the sensory attributes perceived. Afterwards, another 3 tasters tasted and the attributes were noted and discussed openly to find a suitable description. In case that more than 1 taster disagreed with the results, the tasting was repeated. In some sensory test results (above), the taste rating was expressed by “+”, which means the intensity of the factors is shown by three levels. “+” for slight, “++” for moderate and “+++” for very strong.
Assay [2] can be described thus: Sensory evaluation of GSGs and SGs, thaumatin, NHDC and combinations, Example 255. To be noted: combinations of EPCalin (Thaumatin 45%) and NHDC dissolved in water. As for the experimental part:
4.5 ppm Thaumatin (equivalent to 10 ppm EPCalin) was dissolved in water. Increasing amounts of NHDC (1-5 ppm) were added to the solution and the sensory properties were evaluated.
50 ppm (GSGs and SGs) were dissolved in water. Increasing amounts of NHDC (1-5 ppm) were added to the solution and the sensory properties were evaluated.
50 ppm (GSGs and SGs) and 4.5 ppm Thaumatin (equivalent to 10 ppm EPCalin) were dissolved in water. Increasing amounts of NHDC (1-5 ppm) were added to the solution and the sensory properties were evaluated.
Sweetness intensity was rated on 5-point scale
Sweetness intensity was rated on a 5-point scale

The conditions of assay [3]: sweetness depends on the tested concentration compared with sucrose; cited from earlier work.
Assay [4] in a line: Assay to test DPPH radical-scavenging activity, Example 65. The format is biochemical. The conditions noted are these: Reb-A with or without amino acids, 100° C., FIG. 49 and FIG. 50. As for the experimental part: 1 mg 1,1-Diphenyl-2-picrylhydrazyl radical (DPPH)/ml ethanol, dilution to assay concentration were prepared in ethanol (40 μg/mL); Calibration samples were prepared with Ascorbic acid in a concentration of 0-10 μg/mL; as a negative control sample, water was used.
Samples in aqueous solution were used as such or diluted with water.
A 0.1 ml sample (or calibration standard) was mixed with 3.9 ml solution of DPPH (100 μMolar) and reacted while protected from light at room temperature for 30 min. Absorbance was determined at 517 nm against ethanol.
10 mM of amino acid and/or 10 mM sugar were dissolved in 10 ml 0.1 mM KH2PO4-buffer, pH=7.8.
The samples were kept at 100° C. in sealed glass vials (Pyrex 15 ml with screw caps) for 0 (before reaction), 2.5 or 5.0 hours. Thereafter the samples were transferred to an ice water bath and cooled down to room temperature. These samples were diluted 1:10 and used for the test assay for anti-oxidant potential.
On the technique in general: DPPH is a stable violet radical that fades when it is reduced.

The mark [5] stands for this setting: Table 52.2, reaction in 1 ml water + 9 ml Glycerin, 0.67 h, 100° C. (Table 50.2).
Setting [6] is: Table 52.5, reaction in 1 ml water + 9 ml Glycerin, 2.0 h, 120° C. (Table 50.5).
Setting [7] is: Table 52.3, reaction in 1 ml water + 9 ml Glycerin, 0.67 h, 100° C. (Table 50.3).
[8] abbreviates: Table 52.1, samples prepared in Example 50.

Entries after “also recorded” stand apart in the source; their conditions may differ. Residues, ends and D or L forms follow the SMILES beside them.

In the case of `C[C@H](N)C(=O)O` [0.1 mMol Ala], in assay [1] (setting [5]), the Smell entry is listed as “Agar” and the Taste result is “sweet”.

Take `O=C[C@H](O)[C@H]1OC(=O)[C@@H](O)[C@H]1O` [0.1 mMol GlucLac]: in assay [1] (setting [6]), the “Intensity of Smell” value was “+++”, the Smell entry is reported as “Burnt sugar” and the Taste entry is “Bitter”.

As for `NCCCC[C@H](N)C(=O)O` [0.1 mMol Lys], in assay [1] (setting [7]), the Smell result is recorded as “Popcorn” and the Taste entry is listed as “Sweet”.

With `N[C@@H](Cc1ccccc1)C(=O)O` [0.1 mMol Phe], in assay [1] (setting [5]), the Smell result is given as “flowery/bloomy,; also recorded: caramel” and the Taste entry was “sweet”. In assay [1] (setting [6]), the “Intensity of Smell” value is “+”; the Smell result is recorded as “Caramel, burnt”; the Taste entry is listed as “sweet”.

For `C=C1C[C@@]23CC[C@H]4[C@@](C)(CCC[C@@]4(C)C(=O)O[C@@H]4O[C@H](CO)[C@@H](O)[C@H](O)[C@H]4O)[C@@H]2CC[C@]1(O[C@@H]1O[C@H](CO)[C@@H](O)[C@H](O[C@@H]2O[C@H](CO)[C@@H](O)[C@H](O)[C@H]2O)[C@H]1O[C@@H]1O[C@H](CO)[C@@H](O)[C@H](O)[C@H]1O)C3` [0.05 mMol Reb-A], in assay [1] (setting [5]), the Smell result is listed as “neutral/unpleasant” and the Taste entry is given as “sweet”.

Consider `COc1ccc(CCC(=O)c2c(O)cc(O[C@@H]3O[C@H](CO)[C@@H](O)[C@H](O)[C@H]3O[C@@H]3O[C@@H](C)[C@H](O)[C@@H](O)[C@H]3O)cc2O)cc1O` [10 ppm NHDC], for which the Sensory evaluation entry in assay [2] is reported as “Sweet, steep onset of sweetness, no lingering”.

For `N[C@@H](CCC(=O)O)C(=O)O` [167 mMol Glu], in assay [1] (setting [8]), the Smell result is “caramel” and the Taste entry is given as “Sweet”.

With `COC(=O)[C@H](Cc1ccccc1)NC(=O)[C@@H](N)CC(=O)O` [Aspartame] (H-Asp-Phe-OMe), in assay [3], the “times sweeter than sucrose / sugar” value is on record as 160-200 times.

In the case of `OC[C@@H](O)[C@@H](O)[C@H](O)[C@H](O)CO` [Mannitol], the “times sweeter than sucrose / sugar” value in assay [3] was 0.55-0.65 times.

Turning to `N[C@@H](Cc1ccccc1)C(=O)O` [Phe 60 mMol], in assay [1] (setting [8]), the Smell result is “flowery/bloomy-caramel” and the Taste result is listed as “Sweet”.

Regarding `C=C1C[C@@]23CC[C@H]4[C@@](C)(CCC[C@@]4(C)C(=O)O[C@@H]4O[C@H](CO)[C@@H](O)[C@H](O)[C@H]4O)[C@@H]2CC[C@]1(O[C@@H]1O[C@H](CO)[C@@H](O)[C@H](O[C@@H]2O[C@H](CO)[C@@H](O)[C@H](O)[C@H]2O)[C@H]1O[C@@H]1O[C@H](CO)[C@@H](O)[C@H](O)[C@H]1O)C3` [Reb-A, Rebaudioside A], in assay [4], the anti-oxidant properties result is “substantial anti-oxidant properties”.

As to `C=C1C[C@@]23CC[C@H]4[C@@](C)(CCC[C@@]4(C)C(=O)O[C@@H]4O[C@H](CO)[C@@H](O)[C@H](O)[C@H]4O)[C@@H]2CC[C@]1(O[C@@H]1O[C@H](CO)[C@@H](O)[C@H](O)[C@H]1O)C3` [Rubusoside], the “times sweeter than sucrose / sugar” value in assay [3] is on record as 200 times.

As to `C[C@H](CC[C@@H](O[C@@H]1O[C@H](CO)[C@@H](O)[C@H](O)[C@H]1O[C@@H]1O[C@H](CO)[C@@H](O)[C@H](O)[C@H]1O)C(C)(C)O)[C@H]1CC[C@@]2(C)[C@H]3CC=C4[C@@H](CC[C@H](O[C@@H]5O[C@H](CO[C@@H]6O[C@H](CO)[C@@H](O)[C@H](O)[C@H]6O)[C@@H](O)[C@H](O)[C@H]5O)C4(C)C)[C@]3(C)[C@H](O)C[C@]12C` [mogroside IV], the “times sweeter than sucrose / sugar” value in assay [3] was 126 times.

As for `C[C@H](CC[C@@H](O[C@@H]1O[C@H](CO[C@@H]2O[C@H](CO)[C@@H](O)[C@H](O)[C@H]2O)[C@@H](O)[C@H](O)[C@H]1O[C@@H]1O[C@H](CO)[C@@H](O)[C@H](O)[C@H]1O)C(C)(C)O)[C@H]1CC[C@@]2(C)[C@@H]3CC=C4[C@@H](CC[C@H](O[C@@H]5O[C@H](CO[C@@H]6O[C@H](CO)[C@@H](O)[C@H](O)[C@H]6O)[C@@H](O)[C@H](O)[C@H]5O)C4(C)C)[C@]3(C)[C@H](O)C[C@]12C` [mogroside V], the “times sweeter than sucrose / sugar” value in assay [3] is listed as 256-344 times.

Consider `O=S(=O)([O-])NC1CCCCC1.[Na+]` [sodium cyclamate], for which the “times sweeter than sucrose / sugar” value in assay [3] is “about 30 times”.

For `OC[C@H]1O[C@H](O[C@]2(CCl)O[C@H](CCl)[C@@H](O)[C@@H]2O)[C@H](O)[C@@H](O)[C@H]1Cl` [sucralose], in assay [3], the “times sweeter than sucrose / sugar” value is listed as “about 600 times”.

Turning to Thaumatin, the “times sweeter than sucrose / sugar” value in assay [3] is reported as “about 2000 times”.
